These results are taken from publication PMC10096648, “A conserved hymenopteran-specific family of cytochrome P450s protects bee pollinators from toxic nectar alkaloids” (Science Advances, 2023).

Data set [1] concerns the target T1, CYP336A1 (Apis mellifera, UniProt A0A8U0WT43, D298G).
T1 construct: gene LOC724211; codon-optimised; microsomes of baculovirus-infected High Five insect cells, coexpressed with A. mellifera NADPH-cytochrome P450 reductase
Kind of data set: fluorogenic model substrate assay, recombinant microsomes. As to conditions: NADPH; activity present only in the mutant. In kind it is biochemical.

Substrate in data set [2]: CN1CCC[C@H]1c1cccnc1
Kind of data set: nicotine depletion by UPLC-MS/MS, recombinant microsomes. As to conditions: NADPH regeneration system, pH 7.6, 30°C, 30 min, 0.78-100 μM nicotine. In kind it is biochemical, Apis mellifera.

T1 sequence (A0A8U0WT43 entry or part of it D298G): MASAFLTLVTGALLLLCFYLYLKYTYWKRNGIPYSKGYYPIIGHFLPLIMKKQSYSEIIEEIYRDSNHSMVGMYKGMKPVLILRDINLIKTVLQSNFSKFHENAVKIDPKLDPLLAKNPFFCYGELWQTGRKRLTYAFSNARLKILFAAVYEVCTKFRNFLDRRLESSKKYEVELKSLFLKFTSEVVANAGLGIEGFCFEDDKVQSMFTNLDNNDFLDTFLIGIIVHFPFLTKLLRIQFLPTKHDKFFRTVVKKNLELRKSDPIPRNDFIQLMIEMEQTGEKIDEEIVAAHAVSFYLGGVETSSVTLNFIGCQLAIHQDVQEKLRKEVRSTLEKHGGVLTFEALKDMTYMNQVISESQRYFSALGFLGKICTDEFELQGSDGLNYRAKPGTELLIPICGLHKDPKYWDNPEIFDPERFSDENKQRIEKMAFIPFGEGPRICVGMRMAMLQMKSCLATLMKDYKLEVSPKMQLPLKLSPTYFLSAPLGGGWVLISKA

As to `O=c1cc(C(F)(F)F)c2ccc(OCc3ccccc3)cc2o1` [BFC, 7-benzyloxy-4-(trifluoromethyl)coumarin], the “fluorogenic model substrate assay, recombinant microsomes” value in data set [1] is “the D298G substitution leads to significant activity toward BFC”.

B1: CYP336A1 (Apis mellifera) (protein)
chain: MASAFLTLVTGALLLLCFYLYLKYTYWKRNGIPYSKGYYPIIGHFLPLIMKKQSYSEIIEEIYRDSNHSMVGMYKGMKPVLILRDINLIKTVLQSNFSKFHENAVKIDPKLDPLLAKNPFFCYGELWQTGRKRLTYAFSNARLKILFAAVYEVCTKFRNFLDRRLESSKKYEVELKSLFLKFTSEVVANAGLGIEGFCFEDDKVQSMFTNLDNNDFLDTFLIGIIVHFPFLTKLLRIQFLPTKHDKFFRTVVKKNLELRKSDPIPRNDFIQLMIEMEQTGEKIDEEIVAAHAVSFYLDGVETSSVTLNFIGCQLAIHQDVQEKLRKEVRSTLEKHGGVLTFEALKDMTYMNQVISESQRYFSALGFLGKICTDEFELQGSDGLNYRAKPGTELLIPICGLHKDPKYWDNPEIFDPERFSDENKQRIEKMAFIPFGEGPRICVGMRMAMLQMKSCLATLMKDYKLEVSPKMQLPLKLSPTYFLSAPLGGGWVLISKA
notes: codon-optimised; microsomes of baculovirus-infected High Five insect cells, coexpressed with A. mellifera NADPH-cytochrome P450 reductase
What is called Km is the concentration of substrate that gives half-maximal velocity. Consider B1, for which, in data set [2], the Michaelis-Menten constant (Km) is 12.77 µM.
